Data set [1] concerns isolated rat striatum. As to the kind of experiment: dopaminergic activity increasing effect on isolated rat striatum preparations, ex vivo. Here is the method:
(§1) Determination of the dopamineric activity increasing effect, on isolated rat striatum preparations
(§2) Method: Kerecsen et al: Chromatography, the State of the Art, (Eds. Kalasz, Ettre) Akademiai Kiaoo Budepest (1985) page 195-203.
In ex vivo tests the animals are treated s.c. for 3 weeks and the organ is removed 2 hours after administering the last injection.

The test system of data set [2] is isolated rat striatum. As to the kind of experiment: dopaminergic activity increasing effect on isolated rat striatum preparations, in vitro.
Description: as §1, §2

The subject of data set [3] is noradrenaline uptake, nucleus free supernatant of rat cortex. In words: 3H-noradrenaline uptake in the nucleus free supernatant of rat cortex. The format is biochemical. The note with it: 37° C., 5 minutes. Here is the method:
II/7. Determination of ^3 H-noradrenaine uptake in the nucleus free supernatant of rat cortex (in vivo)
The cortex is homogenized in 0.32M saccharose with a teflon potter, the cell nucleus is sedimented by centrifuging at 0° C. with 1000 g for 20 minutes; the supernatant thus obtained is used for the test. The intake is accomplished in a KrebsHeinseleit solution saturated with carbogen, in a final volume of 1 ml, at a ^3 H-noradrenaline concentration of […]. Pre-incubation and incubation are carried out at 37° C. for 5 minutes each. The reaction is stopped by adding 4 ml of ice-cold Krebs solution and the tissue is separated by GF/B filtration. Non-specific uptake is determined by using 10^-4 M nisoxetine at 37° C. The radioactivity of the GF/B filter-paper is determined by liquid scintillation measurement in a toluene-PPO-POPOPtritone mixture.

A short description of another data set: in vivo. The note with it: rat.
Data set [4] concerns rabbit pulmonary artery, tyramine-induced noradrenaline release. The settings on record: read-out: IC50, inhibition of noradrenaline releasing effect of tyramine.
A short description of data set [5]: effect exerted on motility, on rats (spontaneous passings in shuttle-box). The format is in vivo, rat. Here is the method: II/4. Determination of effect exerted on motility, on rats
The test is carried out in a Shuttle-box without introducing current and light. The number of spontaneous passings over from side of the box to the other is registered and summarized by the apparatus for an observation period of 30 minutes. The test is carried out on groups comprising […] CFY rats of both sexes weighing […]. The test compound of the Formula I is added prior to the test subcutaneously, together with tetrabenazine and desmethyl-imiprmine (DMI) reference compounds, respectively.

Data set [6] is described as follows: effect exerted on food intake, in rats. The format is in vivo, rat.
Data set [7] concerns tetrabenazine-induced depression. In words: antagonism of tetrabenazine-induced depression in learning test: jumping test. It is filed as in vivo, rat. The text has this:
II/3 Determination of antagonism of tetrabenazine-induced depression, in learning test, on rats
a) Jumping test. Method: J. Knoll, B. Knoll: Arzneimittel Forschung 8, 339 (1958), 9, 633 (1959).

Data set [8] can be described thus: psychostimulant effect in rats: shuttle-box test. It is filed as in vivo, rat.
In a further data set the test system is nictitating membrane. In words: noradrenaline releasing effect in cats (in vivo), contraction of the nictitating membrane. The note with it: anesthetized cat, PEA i.p.
The nature of data set [9]: psychostimulant effect in rats: modified jumping test. The format is in vivo, rat.
In the next data set the test system is noradrenaline release. The note with it: background; cited from earlier work.
For data set [10], the system named is neuronal uptake of indirectly acting endogenic sympathomimetic amines. The note with it: background; cited from earlier work.

The IC50 is the midpoint of a concentration-inhibition curve. The term LD50 denotes the dose at which mortality reaches 50%. The low end stands for a more toxic substance, the high end for a less toxic substance. For `CCCNC(CC)Cc1ccccc1` (centres unmarked) [Example 6, N-propyl-1-phenyl-2-butyl-amine], the “DOPAC concentration of the bath of the organ” value in the data set with isolated rat striatum [1] (daily dose 0.25, s.c. 3 weeks) amounted to 222 pmol/g/min; in the data set with isolated rat striatum [1] (daily dose 5.0, s.c. 3 weeks), 223 pmol/g/min; in the data set with isolated rat striatum [2] (dose 0.3), 172 pmol/g/min; in the data set with isolated rat striatum [2] (dose 1.0), 190 pmol/g/min; in the data set with isolated rat striatum [2] (dose 3.0) it was 331 pmol/g/min; with isolated rat striatum [2] (dose 10.0), 537 pmol/g/min. In addition, the “dopamine (DA) concentration of the bath of the organ” value with isolated rat striatum [1] (daily dose 0.25, s.c. 3 weeks) came to 257 pmol/g/min; with isolated rat striatum [1] (daily dose 5.0, s.c. 3 weeks), 189 pmol/g/min; in the data set on isolated rat striatum [2] (dose 0.3), 214 pmol/g/min; in the data set with isolated rat striatum [2] (dose 1.0) it was 366 pmol/g/min; in the data set on isolated rat striatum [2] (dose 3.0), 290 pmol/g/min; with isolated rat striatum [2] (dose 10.0), 477 pmol/g/min. The values for the IC50 in data set [3] and in [4] were 500 nM and 346 nM, respectively. Also, the figures for the LD50 in “in vivo” (iv), in the data set “in vivo” (po) and in the data set “in vivo” (sc) were 40 mg/kg, 300 mg/kg and 140 mg/kg, respectively. In addition, the “antagonism of motility inhibiting effect of 1 mg/kg of tetrabenazine” value in [5] (2.5 mg/kg s.c.) is “significantly antagonized”. Further, the motility entry in data set [5] (10 mg/kg s.c., 30 minutes observation) was “do not increase motility”. The food intake entry in [6] (rats fasted for 96 hours, similar dose (15 mg/kg)) is reported as “does not influence the food intake”; in [6] (well-fed satiated rats, 15 mg/kg p.o. or s.c.), “does not change food intake”. Further, the “antagonism of the depressive effect of tetrabenazine” value in [7] (15 mg/kg) is given as “entirely antagonized”. In addition, the “inhibition of the solid conditioned reflex” value in data set [7] (15 mg/kg (high doses)) is given as “can not be inhibited”.
Turning to `CC(N)Cc1ccccc1` (centres unmarked) [amphetamine, reference compound], the intersignal reaction result in data set [8] (1 mg/kg s.c. daily) is reported as “disproportionately high intersignal reaction”. Moreover, the “acquisition of a conditioned reaction and its retention” value in [8] (1 mg/kg s.c. daily, five days of observation) was “significantly increases the acquizition of a conditioned reaction and its retention”. For the same compound, the general motility entry in data set [8] (5-10 mg/kg) is recorded as “extremely high general motility increasing effect”. The “contraction of the nictitating membrane” value in the data set on nictitating membrane is “contraction of long duration”. Besides, the learning and retention entry is on record as “deteriorate” in [9] (larger doses, above 3 mg/kg) and “improve” in data set [9] (small doses, up to 1-2 mg/kg). Moreover, in [6] (rats fasted for 96 hours, 2-5 mg/kg, for 3-4 hours), the food intake result is “completely inhibited”. Also, the anorectic effect result in data set [6] (well-fed satiated rats, 1 mg/kg) is “exhibits an anorectic effect”. In addition, in the data set on noradrenaline release, the noradrenaline releasing effect entry is “strong and long lasting”.
For the compound `CN[C@@H](C)Cc1ccccc1` [methamphetamine], the “inhibition of neuronal uptake of indirectly acting endogenic sympathomimetic amines” value in data set [10] is “inhibits the neuronal uptake of indirectly acting endogenic sympathomimetic amines to a significant extent”. The “contraction of the nictitating membrane” value with nictitating membrane is recorded as “contraction of long duration”. Further, the noradrenaline releasing effect entry in the data set on noradrenaline release was “strong and long lasting”.
